# Measured values published in patent US9814785B2, “Hepatitis C virus liposome vaccine” (Saitama Medical University, priority 2010, dated 2017).
# Where a SMILES comes first, the peptide text is derived from it.
# Key:
# [1] = test system: RMA-HHD target cells pulsed with peptide; details: for CTL cytotoxicity to target cell presenting each peptide: immunogenicity of each peptide in each pool, FIG. 2; for CTL cytotoxicity to target cell presenting each peptide / induction of cytotoxic T cells: 51Cr release; for induction of cytotoxic T cells: peptide-bound liposome prepared from the single peptide, FIG. 3
# [2] = test system: T cells that produce interferon gamma (IFN-γ) antigen-specifically; test: ELISPOT (IFN-γ) with splenocytes of immunized mouse; assay type: in vivo, HHD mouse; details: for IFN-γ production due to the stimulation with each peptide: immunogenicity of each peptide in each pool, FIG. 2
# [3] = test system: recombinant vaccinia virus that expresses HCV-NS3 gene (VV-NS3); parameters: species or system HHD mouse; details: mouse, in vivo
# [4] = immunization with recombinant virus VV-NS3, ELISPOT, FIG. 7
Compound,CTL cytotoxicity to target cell presenting each peptide [1],IFN-γ production due to the stimulation with each peptide ([2]; ELISPOT),induction of cytotoxic T cells [1],vaccine effect of peptide-bound liposome prepared from single peptide [3],other results
"CC[C@H](C)[C@H](NC(=O)[C@H](CC(C)C)NC(=O)[C@H](CS)NC(=O)[C@H](CCCCN)NC(=O)[C@H](Cc1c[nH]c2ccccc12)NC(=O)[C@H](CCSC)NC(=O)[C@@H](N)CCC(N)=O)C(=O)N[C@@H](CCCNC(=N)N)C(=O)N[C@@H](CC(C)C)C(=O)O [compound 8, Gln Met Trp Lys Cys Leu Ile Arg Leu]",strongly induced antigen-specific CTL,–,–,–,–
"CC[C@H](C)[C@H](NC(=O)[C@@H](NC(=O)[C@H](CO)NC(=O)[C@@H](NC(=O)[C@H](CC(=O)O)NC(=O)[C@H](CC(C)C)NC(=O)CN)C(C)C)C(C)C)C(=O)N1CCC[C@H]1C(=O)N[C@H](C(=O)O)[C@@H](C)O [compound 14, Gly Leu Asp Val Ser Val Ile Pro Thr] (H-GLDVSVIPT-OH)",strongly induced antigen-specific CTL,confirmed,–,–,–
"CC[C@H](C)[C@H](NC(=O)[C@H](CS)NC(=O)[C@@H](NC(=O)[C@H](C)NC(=O)[C@H](CC(C)C)NC(=O)[C@@H](N)Cc1ccccc1)[C@@H](C)O)C(=O)N[C@@H](CC(N)=O)C(=O)NCC(=O)N[C@H](C(=O)O)C(C)C [compound 23, Phe Leu Ala Thr Cys Ile Asn Gly Val] (H-FLATCINGV-OH)",strongly induced antigen-specific CTL,confirmed,confirmed,–,–
"CSCC[C@H](NC(=O)[C@@H](N)Cc1ccc(O)cc1)C(=O)N[C@@H](CC(N)=O)C(=O)N[C@H](C(=O)N1CCC[C@H]1C(=O)NCC(=O)N[C@@H](CC(C)C)C(=O)N1CCC[C@H]1C(=O)N[C@H](C(=O)O)C(C)C)[C@@H](C)O [peptide #3, Tyr Met Asn Thr Pro Gly Leu Pro Val] (H-YMNTPGLPV-OH)",strongly induced antigen-specific CTL,confirmed,–,remarkable vaccine effect,"immunogenicity of liposome-bound peptide ([2]; F1 mouse (HHD male x C57BL/6 female) expressing HLA-A*0201 and H-2b, ELISPOT, FIG. 5): high immunogenicity of the same level as that of mouse epitope 1630-1637; boost effect on immunization with VV-NS3 [2, 4]: absent; immunogenicity of peptide on immunization with VV-NS3 [2, 4]: not exhibited; immunogenicity of peptide on immunization with whole NS3 ([2]; immunization with recombinant viruses Adex1CA3269 and VV-NS3, peptide not liposome-bound, FIG. 6): low immunogenicity and low; IFN-γ production ([2]; peptide-bound liposome prepared from the single peptide, ELISPOT, FIG. 3): particularly remarkable"
"CSCC[C@H](NC(=O)CN)C(=O)N[C@@H](Cc1ccccc1)C(=O)N[C@@H](CC(=O)O)C(=O)N[C@@H](CO)C(=O)N[C@@H](CO)C(=O)N[C@H](C(=O)N[C@@H](CC(C)C)C(=O)N[C@@H](CS)C(=O)O)C(C)C [peptide #13, Gly Met Phe Asp Ser Ser Val Leu Cys] (H-GMFDSSVLC-OH)",strongly induced antigen-specific CTL,confirmed,confirmed,remarkable vaccine effect,–
"CC[C@H](C)[C@H](N)C(=O)N[C@@H](CCSC)C(=O)N[C@H](C(=O)N[C@@H](CS)C(=O)N[C@@H](CCSC)C(=O)N[C@@H](CO)C(=O)N[C@@H](C)C(=O)N[C@@H](CC(=O)O)C(=O)N[C@@H](CC(C)C)C(=O)O)[C@@H](C)O [peptide #19, Ile Met Thr Cys Met Ser Ala Asp Leu] (H-IMTCMSADL-OH)",strongly induced antigen-specific CTL,confirmed,–,remarkable vaccine effect,–
IMACMSADL (Hepatitis C virus) [#19-3A],–,–,–,–,"vaccine effect, comparison of #19 and #19-3A bound to liposome ([1]; liposome inoculated twice, FIG. 11): higher vaccine effect"
cys Met Ser Ala Asp Leu Glu Val Val (CMSADLEVV; Hepatitis C virus) [compound 17],strongly induced antigen-specific CTL,confirmed,confirmed,–,–
